According to paper PMC10574557, “The Inhibitory Effect of Magnolol on the Human TWIK1 Channel Is Related to G229 and T225 Sites” (Molecules, 2023):
Substitutions are numbered along the chain they refer to.

Legend:
Type in all cases: cell-based
TWIK1 (K2P1.1/KCNK1) [1] = target: T1, TWIK1 (K2P1.1/KCNK1) (Homo sapiens, UniProt O00180, S224A); test: whole-cell patch clamp, transiently transfected HEK293, Hill fit
T1 construct: full-length cDNA (OriGene) in pcDNA3.1(neo+), stably expressed in HEK293; mutants transiently transfected in HEK293 with CD8; homodimer
T1 sequence (O00180 1-336 S224A): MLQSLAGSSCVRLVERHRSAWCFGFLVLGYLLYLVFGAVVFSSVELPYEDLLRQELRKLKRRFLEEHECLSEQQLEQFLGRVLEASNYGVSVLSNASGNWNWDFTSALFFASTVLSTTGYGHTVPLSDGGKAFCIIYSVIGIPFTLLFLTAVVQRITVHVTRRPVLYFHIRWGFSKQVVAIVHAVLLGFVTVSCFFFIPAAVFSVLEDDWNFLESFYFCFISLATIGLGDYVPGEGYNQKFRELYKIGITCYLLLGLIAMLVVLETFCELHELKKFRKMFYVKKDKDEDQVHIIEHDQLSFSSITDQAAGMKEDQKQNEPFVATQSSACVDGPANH

TWIK1 (K2P1.1/KCNK1) [2] = target: T2, TWIK1 (K2P1.1/KCNK1) (Homo sapiens, UniProt O00180, L223A); test: as above
T2 construct: full-length cDNA (OriGene) in pcDNA3.1(neo+), stably expressed in HEK293; mutants transiently transfected in HEK293 with CD8; homodimer
T2 sequence (O00180 1-336 L223A): T1 sequence (O00180 1-336 S224A) with L223A, A224S

TWIK1 (K2P1.1/KCNK1) [3] = target: T3, TWIK1 (K2P1.1/KCNK1) (Homo sapiens, UniProt O00180, T225A); test: as above
T3 construct: full-length cDNA (OriGene) in pcDNA3.1(neo+), stably expressed in HEK293; mutants transiently transfected in HEK293 with CD8; homodimer
T3 sequence (O00180 1-336 T225A): T1 sequence (O00180 1-336 S224A) with A224S, T225A

TWIK1 (K2P1.1/KCNK1) [4] = target: T4, TWIK1 (K2P1.1/KCNK1) (Homo sapiens, UniProt O00180, I140A); test: as above
T4 construct: full-length cDNA (OriGene) in pcDNA3.1(neo+), stably expressed in HEK293; mutants transiently transfected in HEK293 with CD8; homodimer
T4 sequence (O00180 1-336 I140A): T1 sequence (O00180 1-336 S224A) with I140A, A224S

TWIK1 (K2P1.1/KCNK1) [5] = target: T5, TWIK1 (K2P1.1/KCNK1) (Homo sapiens, UniProt O00180); test: whole-cell patch clamp, HEK293-TWIK1 stable line, Hill fit
T5 construct: full-length cDNA (OriGene) in pcDNA3.1(neo+), stably expressed in HEK293; mutants transiently transfected in HEK293 with CD8; homodimer
T5 sequence (O00180 1-336): T1 sequence (O00180 1-336 S224A) with A224S

TWIK1 (K2P1.1/KCNK1) [6] = target: T6, TWIK1 (K2P1.1/KCNK1) (Homo sapiens, UniProt O00180, G229A); test: whole-cell patch clamp, transiently transfected HEK293, Hill fit
T6 construct: full-length cDNA (OriGene) in pcDNA3.1(neo+), stably expressed in HEK293; mutants transiently transfected in HEK293 with CD8; homodimer
T6 sequence (O00180 1-336 G229A): T1 sequence (O00180 1-336 S224A) with A224S, G229A

## C=CCc1ccc(O)c(-c2cc(CC=C)ccc2O)c1 [magnolol]
TWIK1 (K2P1.1/KCNK1) [1]
  IC50: 7.43 ± 3.2 µM
TWIK1 (K2P1.1/KCNK1) [2]
  IC50: 9.55 ± 1.62 µM
TWIK1 (K2P1.1/KCNK1) [3]
  IC50: 21.8 ± 7.93 µM
TWIK1 (K2P1.1/KCNK1) [4]
  IC50: 10.2 ± 1.07 µM
TWIK1 (K2P1.1/KCNK1) [5]
  IC50: 6.21 ± 0.13 µM
TWIK1 (K2P1.1/KCNK1) [6]
  IC50: 20.8 ± 3.2 µM
